Data published in patent EP2067861A1, “Animals of the rattus genus wherein msh6 expression is functionally decreased and methods for the generation of specific mutants therefrom” (Koninklijke Nederlandse Akademie van Wetenschappen, priority 2007, dated 2009).
“And” between values parts separate entries of the source, which are not always exact repeats. Identical values can stand only once.

System: msh6^-/- males
Experiment: ENU dose-response experiment: fertility of treated founder males
Type: in vivo, rat
Protocol: All experiments were approved by the Animal Care Committee of the Royal Dutch Academy of Science according to the Dutch legal ethical guidelines. Experiments were designed to minimize the number of required animals and their suffering. Male MSH6 knockout rats (Msh6^1Hubr) of 12 weeks of age were given three weekly intraperitoneal injections of 25, 30 and 35 mg/kg bodyweight ENU. Preparation of ENU (Isopac; Sigma) was done as decribed (for detailed description, see (Smits et al. (2006) Pharmacogenet Genomics 16, 159-69) After the treatment the injected males were monitored for fertility by breeding with one or two females. Pups from these early matings were counted, but not analyzed. Ten weeks after the last injection, fertile males of the highest-dosed fertile group were kept on a weekly breeding scheme with two females to produce F1 progeny for mutational analysis. Animals were housed under standard conditions in groups of two to three per cage per gender under controlled experimental conditions (12-h light/dark cycle, 21±1°C, 60% relative humidity, food and water ad libitum).
The efficiency of ENU is dependent of the dose, reflected by a higher mutagenicity after three weekly administrations of low doses of the mutagen compared to a single high-dose injection (Justice et al. (2000) Mamm Genome 11, 484-8). Furthermore it has been shown that higher ENU concentrations increase the mutation frequency (Smits et al. ([…]) Pharmacogenet Genomics 16, 159-69; Smits and Cuppen (2006) Trends Genet. 22, 232-40). To determine the optimal ENU concentration we performed an ENU dose-response experiment and determined the fertility of the founders. At 12 weeks of age msh6^-/- males were treated with 3 weekly doses of different concentrations of the mutagen. Fertility was determined after a full cycle of spermatogenesis (± 10 weeks) by breeding and/or histological analysis of the testes. At concentrations of 35, 30 and 25 mg/kg, respectively 1/8, 5/8 and 4/6 males were fertile (Table 5). Compared to earlier studies, where at 40 and 35 mg/kg ENU respectively 6/10 and 10/10 rats are fertile (Smits and Cuppen (2006) Trends Genet. 22, 232-40), this is a considerable decrease. It is known that MSH6 deficiency reduces lifespan in both rats (van Boxtel et al. (2007) submitted) and mice (Edelmann (1997) Cell 91, 467-77) as a result of tumor development. MSH6 deficiency increased ENU sensitivity not only in fertility, but also in survival. Whereas untreated msh6^-/- rats show a median survival of 14 months, this is reduced in the ENU treated males to an average mean of 37 ± 3 weeks (∼ 8 months) and no male was alive after 50 weeks of age (Figure 5). This decrease in lifespan was due to the development of tumors, mainly lymphomas (data not shown). […]

CCN(N=O)C(N)=O [ENU, N-ethyl-N-nitrosourea]
# Fertile males (MSH6^-/- 3 x 25 mg of ENU per kg bodyweight (three weekly injections), 6 males injected, testes histology and/or at least one litter 10 weeks after last injection): 4/6 and 4 | # Fertile males (MSH6^-/- 3 x 30 mg of ENU per kg bodyweight (three weekly injections), 8 males injected): 5/8 and 5 | # Fertile males (MSH6^-/- 3 x 35 mg of ENU per kg bodyweight (three weekly injections), 8 males injected): 1/8 and 1 | # Fertile males (MSH6^-/- Total of the three dose groups, 24 males injected as printed): 10
